Measurements published in the supplement of paper PMC13380429.

Experiments:
Details in all cases: 72 h
[1] = test system: Caco-2; assay: cell viability relative to DMSO; higher = less toxic
[2] = test system: Calu-3; assay: as above
[3] = test system: HepG2; assay: as above
[4] = test system: U2OS; assay: as above
[5] = test system: Vero E6; assay: as above
[6] = test system: Caco-2; assay: relative viability EC50 (midpoint between 100% and the lowest measured viability); higher = less toxic
[7] = test system: Calu-3; assay: as above
[8] = test system: HepG2; assay: as above
[9] = test system: U2OS; assay: as above
[10] = test system: Vero E6; assay: as above
[11] = test system: Caco-2; assay: drug sensitivity score (DSS) for viability; higher = more toxic; extreme values may be limits of the assay
[12] = test system: Calu-3; assay: as above
[13] = test system: HepG2; assay: as above
[14] = test system: U2OS; assay: as above
[15] = test system: Vero E6; assay: as above

Structure (SMILES)	cell viability ([1]; 1 nM) [%]	cell viability ([1]; 10 nM) [%]	cell viability ([1]; 100 nM) [%]	cell viability ([1]; 1000 nM) [%]	cell viability ([1]; 10000 nM) [%]	cell viability ([2]; 1 nM) [%]	cell viability ([2]; 10 nM) [%]	cell viability ([2]; 100 nM) [%]	cell viability ([2]; 1000 nM) [%]	cell viability ([2]; 10000 nM) [%]	cell viability ([3]; 1 nM) [%]	cell viability ([3]; 10 nM) [%]	cell viability ([3]; 100 nM) [%]	cell viability ([3]; 1000 nM) [%]	cell viability ([3]; 10000 nM) [%]	cell viability ([4]; 1 nM) [%]	cell viability ([4]; 10 nM) [%]	cell viability ([4]; 100 nM) [%]	cell viability ([4]; 1000 nM) [%]	cell viability ([4]; 10000 nM) [%]	cell viability ([5]; 1 nM) [%]	cell viability ([5]; 10 nM) [%]	cell viability ([5]; 100 nM) [%]	cell viability ([5]; 1000 nM) [%]	cell viability ([5]; 10000 nM) [%]	relative viability EC50 [6] [µM]	relative viability EC50 [7] [µM]	relative viability EC50 [8] [µM]	relative viability EC50 [9] [µM]	relative viability EC50 [10] [µM]	drug sensitivity score [11]	drug sensitivity score [12]	drug sensitivity score [13]	drug sensitivity score [14]	drug sensitivity score [15]
CCC[N+]12[C@H](O)[C@@H](CC)[C@@H]3C[C@H]1[C@@H]1N(C)c4ccccc4[C@]14C[C@H]2[C@@H]3[C@H]4O [neo-gilurytmal]	103	99.3	92.6	86.2	93.1	104	98	96.4	100	91.4	93.4	99.1	92.3	97.8	104	100	95.7	101	91.5	101	100	99.4	98.4	97.4	95.7	> 10	> 10	> 10	> 10	> 10	1.3	0	0	0	0
NCC(O)c1ccc(O)cc1 (stereo not given) [octopamine]	87.1	96.9	94	100	86.1	108	105	93	108	95.6	91.7	103	95.9	97.5	117	95.1	97.3	101	96.5	95.6	106	96.6	101	85.1	100	> 10	> 10	> 10	> 10	> 10	0.1	0	0	0	0
